Entries after “also recorded” stand apart in the source; their conditions may differ. Ends that are not written are not given here.
What was measured:
[1] = target: T1, FV-810^R1545Q (Homo sapiens, UniProt P12259, DEL839-1519/R1573Q); test: Clotting assay with FV-810^R1545Q; type: biochemical
T1 construct: amino acids 1-28 are a signal peptide that is cleaved and numbering begins at residue 29; made in house
Description: (§1) Residual clotting activity of Factor V variants was determined by prothrombin time-based clotting assays. Factor V variants were incubated with either the FVBR or s46 peptide, after which the mixtures were mixed with Factor V deficient plasma and clotting times were measured. Where indicated, the Factor V variants were activated by pre-incubation with thrombin prior to addition of the peptides.
(§2) FV derivatives (500 nM) were prepared in assay buffer. Where noted, FV derivatives were pretreated with 10 nM thrombin for 15 minutes at 37° C., followed by the addition of 15 nM hirudin. Samples were diluted to 0.25 nM in assay buffer with 0.1% BSA, and the specific clotting activity was measured in FV-deficient plasma (George King Bio-Medical, Overland Park, Kans.) with TriniCLOT PT Excel (Tcoag, Wicklow, Ireland) as described (Camire et al. (1998) Biochemistry 37:11896-11906). The data are presented as the means±S.D.

[2] = target: T2, FXa/FVa (Homo sapiens, UniProt P12259); test: Binding of fluorescently labeled FXa to rFVa on liposomes (anisotropy); conditions: on PCPS liposomes
T2 construct: thrombin rapidly cleaves Factor V at Arg709 to produce heavy chain (HC); rapidly cleaves at Arg1018 and Arg1545 to produce light chain (LC); made in house
T2 sequence (P12259 29-737 limits assumed): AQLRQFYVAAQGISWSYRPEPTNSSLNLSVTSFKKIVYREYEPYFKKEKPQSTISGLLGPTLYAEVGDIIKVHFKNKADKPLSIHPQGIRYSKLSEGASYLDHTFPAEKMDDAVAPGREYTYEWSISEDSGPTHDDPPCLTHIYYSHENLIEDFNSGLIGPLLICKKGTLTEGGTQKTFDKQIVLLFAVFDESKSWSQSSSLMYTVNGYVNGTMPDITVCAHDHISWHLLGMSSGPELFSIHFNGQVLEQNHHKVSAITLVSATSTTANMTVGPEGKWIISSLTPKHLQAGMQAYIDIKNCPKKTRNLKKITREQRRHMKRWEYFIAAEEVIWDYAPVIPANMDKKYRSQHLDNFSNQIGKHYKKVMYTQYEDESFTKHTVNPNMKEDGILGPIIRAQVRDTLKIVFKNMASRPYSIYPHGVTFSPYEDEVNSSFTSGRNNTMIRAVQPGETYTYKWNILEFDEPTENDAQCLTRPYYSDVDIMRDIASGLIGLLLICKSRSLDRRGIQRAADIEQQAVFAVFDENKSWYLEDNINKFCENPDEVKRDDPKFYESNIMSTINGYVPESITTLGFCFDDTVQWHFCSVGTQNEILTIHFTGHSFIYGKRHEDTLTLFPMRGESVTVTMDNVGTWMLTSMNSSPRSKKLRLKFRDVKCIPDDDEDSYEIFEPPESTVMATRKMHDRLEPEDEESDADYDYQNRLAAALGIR
T2 sequence (P12259 1574-2224 limits assumed): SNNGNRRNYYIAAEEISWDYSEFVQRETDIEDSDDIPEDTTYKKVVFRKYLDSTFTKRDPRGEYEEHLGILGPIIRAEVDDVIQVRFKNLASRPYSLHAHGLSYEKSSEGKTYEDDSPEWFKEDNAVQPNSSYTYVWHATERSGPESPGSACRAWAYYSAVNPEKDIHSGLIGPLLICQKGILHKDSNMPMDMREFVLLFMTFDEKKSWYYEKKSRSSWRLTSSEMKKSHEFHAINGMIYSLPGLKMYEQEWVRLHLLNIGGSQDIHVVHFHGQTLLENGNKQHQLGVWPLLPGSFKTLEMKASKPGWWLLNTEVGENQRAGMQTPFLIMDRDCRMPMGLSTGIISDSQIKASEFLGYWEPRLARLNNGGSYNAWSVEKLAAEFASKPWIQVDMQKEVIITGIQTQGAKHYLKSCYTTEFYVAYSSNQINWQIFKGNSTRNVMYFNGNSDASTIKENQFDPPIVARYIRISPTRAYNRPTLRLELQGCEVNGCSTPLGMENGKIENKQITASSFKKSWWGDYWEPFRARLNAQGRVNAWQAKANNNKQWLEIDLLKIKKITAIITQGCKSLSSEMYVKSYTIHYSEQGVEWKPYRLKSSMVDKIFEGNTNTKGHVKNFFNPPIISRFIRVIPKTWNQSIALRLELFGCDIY

[3] = test system: normal human plasma; test: Clot time of normal human plasma; type: biochemical; conditions: increasing amounts of FVBR
[4] = target: T3, FV-810 (Homo sapiens, UniProt P12259, DEL839-1519); test: Fluorescence anisotropy, direct binding of OG488-BR to FV-810; conditions: fluorescently labeled FVBR
T3 construct: amino acids 1-28 are a signal peptide that is cleaved and numbering begins at residue 29; made in house

[5] = target: T4, plasma-derived Factor V (Homo sapiens, UniProt P12259); test: Proteolytic activation of Factor V by thrombin (SDS-PAGE); type: biochemical; conditions: presence of FVBR
T4 construct: from tissue; host or cells: plasma
Description: Plasma-derived Factor V was incubated with thrombin in the presence or absence of FVBR peptide. Samples were removed and quenched in sample buffer at the indicated times, and the cleavage products were analyzed by SDS-PAGE and Coomassie Brilliant Blue staining.

[6] = target: T5, rFVa (Homo sapiens, UniProt P12259); test: Clotting assay, FV-deficient plasma supplemented with rFVa; type: biochemical; conditions: FIG. 8B: 0.25 nM rFVa, peptides at 5 μM, listed as BR peptide
T5 construct: thrombin rapidly cleaves Factor V at Arg709 to produce heavy chain (HC); rapidly cleaves at Arg1018 and Arg1545 to produce light chain (LC); made in house
T5 sequence (P12259 29-737 limits assumed): T2 sequence (P12259 29-737 limits assumed)
T5 sequence (P12259 1574-2224 limits assumed): T2 sequence (P12259 1574-2224 limits assumed)
Description: as §1, §2

[7] = target: T6, FV-810^QQ (Homo sapiens, UniProt P12259, DEL839-1519/R1573Q/R737Q); test: Clotting assay with FV-810^QQ; type: biochemical
T6 construct: amino acids 1-28 are a signal peptide that is cleaved and numbering begins at residue 29; made in house
Description: as §1, §2

[8] = target: T7, FXa/FV-DT (Homo sapiens, UniProt P12259, DEL839-1519); test: Binding of fluorescently labeled FXa to FV-DT on liposomes (anisotropy); conditions: on PCPS liposomes
T7 construct: amino acids 1-28 are a signal peptide that is cleaved and numbering begins at residue 29; made in house

[9] = target: T3, FV-810; test: Clotting assay, FV-deficient plasma supplemented with FV-810 (FV-DT); type: biochemical; conditions: for inhibition of clotting activity of FV-810 (FV-DT): FV-deficient plasma, FIG. 8A: 0.25 nM FV-810, peptides at 5 μM
Description: as §1, §2

[10] = following incubation with thrombin
[11] = listed as FV basic region peptide

T4 sequence (P12259 29-2224): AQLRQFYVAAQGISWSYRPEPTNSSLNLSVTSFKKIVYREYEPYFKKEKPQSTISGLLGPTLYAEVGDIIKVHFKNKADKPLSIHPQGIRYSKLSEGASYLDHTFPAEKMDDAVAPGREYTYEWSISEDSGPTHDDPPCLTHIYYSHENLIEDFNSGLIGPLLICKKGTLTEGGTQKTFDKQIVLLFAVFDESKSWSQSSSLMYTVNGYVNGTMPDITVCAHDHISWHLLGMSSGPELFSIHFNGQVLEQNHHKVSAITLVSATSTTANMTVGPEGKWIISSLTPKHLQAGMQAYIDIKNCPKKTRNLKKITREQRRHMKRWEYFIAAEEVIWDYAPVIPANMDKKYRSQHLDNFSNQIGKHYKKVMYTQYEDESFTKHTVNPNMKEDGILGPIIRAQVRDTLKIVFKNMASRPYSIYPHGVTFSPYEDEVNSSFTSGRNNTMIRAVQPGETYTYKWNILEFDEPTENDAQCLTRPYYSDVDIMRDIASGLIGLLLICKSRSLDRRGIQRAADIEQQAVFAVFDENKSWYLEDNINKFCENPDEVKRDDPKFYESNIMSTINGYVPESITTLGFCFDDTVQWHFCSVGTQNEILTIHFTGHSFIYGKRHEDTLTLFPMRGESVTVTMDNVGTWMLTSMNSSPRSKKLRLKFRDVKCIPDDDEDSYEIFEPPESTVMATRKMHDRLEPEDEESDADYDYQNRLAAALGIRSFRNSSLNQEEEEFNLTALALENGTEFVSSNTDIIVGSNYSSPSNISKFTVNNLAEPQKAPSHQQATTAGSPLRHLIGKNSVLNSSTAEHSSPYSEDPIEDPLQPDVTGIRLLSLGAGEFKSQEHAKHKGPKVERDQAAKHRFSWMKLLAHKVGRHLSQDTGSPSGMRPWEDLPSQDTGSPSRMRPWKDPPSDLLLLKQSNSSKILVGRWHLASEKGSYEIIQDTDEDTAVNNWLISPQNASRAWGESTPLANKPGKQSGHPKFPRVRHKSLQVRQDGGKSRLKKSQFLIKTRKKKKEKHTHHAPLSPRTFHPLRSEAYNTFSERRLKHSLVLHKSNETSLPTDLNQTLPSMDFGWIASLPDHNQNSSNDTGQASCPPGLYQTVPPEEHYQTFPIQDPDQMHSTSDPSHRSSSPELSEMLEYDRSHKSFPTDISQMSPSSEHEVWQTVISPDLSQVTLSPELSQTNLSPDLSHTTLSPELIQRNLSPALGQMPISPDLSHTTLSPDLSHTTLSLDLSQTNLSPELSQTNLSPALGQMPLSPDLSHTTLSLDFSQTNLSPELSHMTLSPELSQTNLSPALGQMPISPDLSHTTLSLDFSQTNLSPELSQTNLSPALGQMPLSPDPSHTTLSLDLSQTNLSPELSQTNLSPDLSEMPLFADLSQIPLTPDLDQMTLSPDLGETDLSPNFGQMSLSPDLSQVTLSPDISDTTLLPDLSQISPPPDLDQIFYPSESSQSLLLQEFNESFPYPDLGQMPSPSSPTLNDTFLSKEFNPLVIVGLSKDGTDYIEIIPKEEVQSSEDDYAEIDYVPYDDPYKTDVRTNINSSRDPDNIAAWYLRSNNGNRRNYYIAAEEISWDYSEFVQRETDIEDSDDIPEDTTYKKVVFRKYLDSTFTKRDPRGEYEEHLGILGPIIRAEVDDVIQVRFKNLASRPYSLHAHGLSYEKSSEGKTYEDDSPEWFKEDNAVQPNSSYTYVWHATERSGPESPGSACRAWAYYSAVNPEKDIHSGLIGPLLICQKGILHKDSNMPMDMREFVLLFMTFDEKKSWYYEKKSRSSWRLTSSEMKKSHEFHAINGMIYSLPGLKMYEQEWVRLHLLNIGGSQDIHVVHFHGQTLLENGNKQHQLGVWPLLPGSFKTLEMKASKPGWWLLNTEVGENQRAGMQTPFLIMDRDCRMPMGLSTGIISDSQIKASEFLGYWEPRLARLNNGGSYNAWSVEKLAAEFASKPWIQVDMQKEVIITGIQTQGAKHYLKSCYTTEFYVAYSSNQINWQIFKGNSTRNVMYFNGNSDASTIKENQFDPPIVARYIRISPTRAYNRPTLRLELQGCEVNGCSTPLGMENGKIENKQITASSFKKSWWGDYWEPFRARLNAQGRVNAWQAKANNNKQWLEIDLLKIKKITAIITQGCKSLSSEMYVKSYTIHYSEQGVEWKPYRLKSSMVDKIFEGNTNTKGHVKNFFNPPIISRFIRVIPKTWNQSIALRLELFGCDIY
T3 sequence (P12259 with tags, fused parts or gaps DEL839-1519): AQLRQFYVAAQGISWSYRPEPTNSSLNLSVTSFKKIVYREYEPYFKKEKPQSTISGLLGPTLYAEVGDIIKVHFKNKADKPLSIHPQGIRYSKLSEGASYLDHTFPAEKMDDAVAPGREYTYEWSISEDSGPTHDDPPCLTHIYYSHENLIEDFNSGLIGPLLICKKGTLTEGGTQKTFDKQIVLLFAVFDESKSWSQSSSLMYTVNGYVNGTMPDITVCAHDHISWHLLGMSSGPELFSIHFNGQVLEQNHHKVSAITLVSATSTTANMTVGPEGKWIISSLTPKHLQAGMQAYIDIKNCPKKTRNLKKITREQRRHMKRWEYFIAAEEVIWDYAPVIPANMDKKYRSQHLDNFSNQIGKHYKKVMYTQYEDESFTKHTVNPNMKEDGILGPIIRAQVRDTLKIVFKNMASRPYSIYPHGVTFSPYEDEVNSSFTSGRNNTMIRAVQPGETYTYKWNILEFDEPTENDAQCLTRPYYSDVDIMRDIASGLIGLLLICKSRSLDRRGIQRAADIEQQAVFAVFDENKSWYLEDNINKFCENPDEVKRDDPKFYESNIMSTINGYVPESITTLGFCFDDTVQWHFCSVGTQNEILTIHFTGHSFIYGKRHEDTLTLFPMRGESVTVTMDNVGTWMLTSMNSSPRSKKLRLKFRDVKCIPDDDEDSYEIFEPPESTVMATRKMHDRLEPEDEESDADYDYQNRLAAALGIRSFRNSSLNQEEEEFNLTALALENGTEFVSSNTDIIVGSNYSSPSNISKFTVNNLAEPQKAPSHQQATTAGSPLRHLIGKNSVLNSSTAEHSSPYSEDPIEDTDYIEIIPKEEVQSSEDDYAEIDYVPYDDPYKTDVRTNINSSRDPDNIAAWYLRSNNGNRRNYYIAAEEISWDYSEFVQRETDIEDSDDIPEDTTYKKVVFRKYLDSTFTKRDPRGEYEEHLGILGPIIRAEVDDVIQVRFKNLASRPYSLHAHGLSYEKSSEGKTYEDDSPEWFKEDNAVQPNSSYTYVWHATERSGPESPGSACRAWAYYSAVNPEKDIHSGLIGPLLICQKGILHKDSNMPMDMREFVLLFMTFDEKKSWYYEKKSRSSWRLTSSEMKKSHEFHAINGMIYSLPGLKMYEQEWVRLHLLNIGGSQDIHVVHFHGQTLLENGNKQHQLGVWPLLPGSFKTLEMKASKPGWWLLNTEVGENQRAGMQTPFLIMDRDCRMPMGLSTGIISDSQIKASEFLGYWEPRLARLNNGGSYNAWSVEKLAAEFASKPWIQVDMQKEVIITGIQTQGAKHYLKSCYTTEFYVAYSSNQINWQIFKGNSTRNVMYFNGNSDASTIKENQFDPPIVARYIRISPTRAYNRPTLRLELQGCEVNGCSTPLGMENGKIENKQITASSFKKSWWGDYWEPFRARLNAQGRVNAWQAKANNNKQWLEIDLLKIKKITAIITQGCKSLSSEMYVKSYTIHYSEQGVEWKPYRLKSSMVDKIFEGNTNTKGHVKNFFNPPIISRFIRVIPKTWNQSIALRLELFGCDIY
T1 sequence (P12259 with tags, fused parts or gaps DEL839-1519/R1573Q): as the sequence (P12259 with tags, fused parts or gaps DEL839-1519) above, with R864Q counted along it
T7 sequence (P12259 with tags, fused parts or gaps DEL839-1519): as the sequence (P12259 with tags, fused parts or gaps DEL839-1519) above
T6 sequence (P12259 with tags, fused parts or gaps R737Q/DEL839-1519/R1573Q): as the sequence (P12259 with tags, fused parts or gaps DEL839-1519) above, with R709Q, R864Q counted along it

inhibition of FV-810^R1545Q [1, 10]: still inhibited
inhibition of FV-810^R1545Q ([1]; prior to thrombin cleavage): potently inhibited
disruption of FXa binding to FVa [2]: not FVa
direct binding to FVDT [4]: direct binding
direct binding to FVDT [4, 11]: binds FVDT
thrombin cleavage of FV at Arg709 [5]: proceeds normally
inhibition of clotting activity of rFVa/FVa [6]: no inhibitory effect
inhibition of FV-810^QQ [7, 10]: still inhibited
inhibition of FV-810^QQ ([7]; prior to thrombin cleavage): potently inhibited
disruption of FXa binding to FV-DT [8]: impaired
disruption of FXa binding to FV-DT [8, 11]: disrupts binding
inhibition of clotting activity of FV-810 (FV-DT) [9]: inhibited
inhibition of clotting activity of FV-810 (FV-DT) ([9]; listed as BR peptide): similarly inhibited
inhibition of FV-810 ([9]; prior to thrombin cleavage): potently inhibited
Sequence: SRAWGESTPLANKPGKQSGHPKFPRVRHKSLQVRQDGGKSRLKKSQFLIKTRKKKKEK [FVBR]
clot time of normal plasma [3]: prolongs the clot time
proteolytic activation of FV by thrombin, cleavage at Arg1545 [5]: delays the proteolytic activation; also recorded: delayed cleavage
